Patent US9937227B2, “Humanin, analogs and cancer treatment methods and uses thereof” (LOS ANGELES BIOMEDICAL RESEARCH INSTITUTE AT HARBOR-UCLA …, priority 2014, dated 2018)
Several values for one entry are separate records, joined by “and”; a condition that tells them apart may be missing. Equal values may be shown once. Read-outs that look alike come from different tables or passages of the source.

Legend:
male germ cells [1] = format: in vivo; conditions: middle stages (VII-VIII); same doses; 24 hours; monohydrate
Procedure: (§1) For the HN analog experiments, male mice were divided into seven groups (n=4-5 per group) and received one of the following treatments and sacrificed after 24 hours: 1) vehicle (control); 2) a single intra-peritoneal (IP) injection of HN peptide [HN, 40 mg/Kg body weight (BW)]; 3) a single IP injection of CP (CP, 200 mg/Kg BW); 4) IP injection of CP and HN (CP+HN); 5) a single IP injection of each HN analog (HNG 5 mg/Kg BW, HNG-F6A 5 mg/Kg BW, HN-S7A 40 mg/Kg BW, HN-C8P 40 mg/Kg BW, or HN-L12A 40 mg/Kg BW); 6) IP injection of CP and each HN analog (CP+HNG, HNG-F6A, HN-S7A, HN-C8P, or HN-L12A); and 7) IP injection of CP+HN+HN analog (HN-S7A, HN-C8P, or HN-L12A; to assess whether the analogs has enhancing or inhibitory effect on HN).
(§2) To facilitate testicular fixation by using a whole-body perfusion technique, all animals were injected with heparin (130 IU/100 g BW, IP) 15 min before a lethal injection of sodium pentobarbital (200 mg/kg BW, IP) (Lue Y H, et al., 1999). One testis was removed and weighed after perfusion with saline. Portions of testicular parenchyma were snap frozen in liquid nitrogen, and stored at −80 C for Western blotting. The other testis was fixed by vascular perfusion with Bouin's solution, and processed with routine paraffin embedding for in situ detection of apoptosis.
Detection of apoptotic cells was performed in Bouin's'-fixed, paraffin-embedded testicular sections by the terminal deoxynucleotidyl transferase (TdT)-mediated deoxy-UTP nick end labeling (TUNEL) technique (Sinha Hikim A P, et al., 1997) using an ApopTag-peroxidase kit (Chemicon International, Inc., Temecula, Calif.). Enumeration of the Sertoli cell nuclei with distinct nucleoli and apoptotic germ cell population was quantified at stages I-IV (early stages), stages VII-VIII (middle stages) and stages XI-XII (late stages) of the seminiferous epithelial cycle using an Olympus BH-2 microscope (New Hyde Park, N.Y.). Stages were identified according to the criteria proposed by Russell et al for paraffin sections (Russell L, 1977). The rate of germ cell apoptosis (apoptotic index, AI) was expressed as the number of apoptotic germ cells per Sertoli cells (Sinha Hikim A P, et al., 1997).

testosterone = conditions: with or without EDS pre-treatment
[2] = test system: Ser727-phosphorylated STAT3; experiment: STAT3 phosphorylation in testis by western blot; format: in vivo, mouse; conditions: testis homogenates; single agent
Procedure: as §1, §2
Western blotting was performed as described previously (Jia Y, et al., 2009). […]

ovaries = format: in vivo; conditions: HNG 5 mg/kg/day IP or CP 100 mg/Kg single IP, day 14
Procedure: A mouse mammary cancer model was used which utilizes 4T1 cells transfected with the luciferase gene. Growth and size of 4T1 mammary tumors were detected by bioluminescence imaging (IVIS Luminia II, Perkin Elmer, Waltham, Mass.). Mice (n=5 to 7 per group) were inoculated with 1×10^6 4T1 cells into the right third mammary gland, and 7 days later they were left untreated or treated with HNG (5 mg/kg/day IP), CP (100 mg/Kg single IP) or HNG+CP for 14 days. Animals were sacrificed and both ovaries were removed from each mouse on day 14 after the start of treatment. Serial 5-micrometer sections were made. Every 5th section was examined and the number of primordial, primary, and secondary follicles counted (Kim S Y, et al., 2013; Bristol-Gould S K, et al., 2006; Roti Roti E C, et al., 2012). In addition, TUNEL staining for apoptotic cells and oocytes was quantified (Perez G I, et al., 1997; Ben-Aharon I, et al., 2010).

4T1 mammary cancer = experiment: 4T1 mouse mammary cancer model, tumor size and weight; conditions: in vivo
Procedure: A mouse mammary cancer model was used which utilizes 4T1 cells transfected with the luciferase gene. Growth and size of 4T1 mammary tumors were detected by bioluminescence imaging (IVIS Luminia II, Perkin Elmer, Waltham, Mass.). Mice (n=5 to 7 per group) were inoculated with 1×10^6 4T1 cells into the right third mammary gland, and 7 days later they were left untreated or treated with HNG (5 mg/kg/day IP), CP (100 mg/Kg single IP) or HNG+CP for 14 days. Bioluminescence imaging was conducted at days 7 and 12. Animals were sacrificed and tumors were removed on day 14 after the start of treatment. Mammary tumors were smaller in CP and CP+HNG groups compared to the untreated and HNG-treated animals (Data images not shown).

germ cells = conditions: HNG 5 mg/kg/BW IP or CP 200 mg/kg/BW IP, 24 hours
Procedure: To examine the protective effects of HNG on germ cells, adult mice were treated with vehicle (control); HNG (5 mg/kg/BW, intraperitoneal injection IP); CP (200 mg/kg/BW, IP); and CP+HNG for 24 hours.

IGF-1 = experiment: Plasma IGF-1 in mice bearing metastatic lung melanomas; format: in vivo, mouse; conditions: 14 days; HNG 5 mg/kg/day IP, CP 200 mg/kg IP single injection
From the text: These preliminary data support a concept that HN is a caloric restriction mimetic, and its cytotoxic effects in cancer may be mediated by lowering IGF-1 without increasing GH and insulin.

male germ cells [3] = test system: male germ cells

SMILES: O=P1(N(CCCl)CCCl)NCCCO1 (stereo not drawn) [CP, cyclophosphamide monohydrate]
- apoptotic index (AI, apoptotic germ cells per Sertoli cell) (male germ cells [1]): 0.25±0.03 and 0.33±0.03
- intratesticular testosterone levels (testosterone): no significant effects
- serum testosterone levels (testosterone): no significant effects
- STAT3 phosphorylation compared with control [2]: suppressed
- ovarian follicles in representative sections (ovaries): less secondary, but more atretic follicles
- mammary tumor size and weight (4T1 mammary cancer): smaller
- germ cell apoptosis vs control (germ cells): significantly increased
- plasma IGF-1 levels (IGF-1): modestly suppressed
- germ cell apoptosis compared to control (male germ cells [3]; early (I-VI) and late (IX-XIV) stages, EDS pre-treated): did not significantly increased
- germ cell apoptosis compared to control (male germ cells [3]; early (I-VI) and late (IX-XIV) stages, no EDS, CP 70 mg/kg BW IP, 12 hours): significantly increased
- CP induced germ cell apoptosis in EDS pre-treated rats vs without EDS (male germ cells [3]; early and late stages): significantly lower
- germ cell apoptosis compared to control (male germ cells [3]; middle (VII-VIII) stages, no EDS, CP 70 mg/kg BW): did not increase
